Measured values taken from patent publication US5605929A, “Methods and compositions for inhibiting 5α-reductase activity” (priority 1995, dated 1997).
Where two headings read alike, the source gives them in different places.

Legend:
[1] = target: T1, 5α-Reductase of Rat Liver Microsomes (Rattus norvegicus, UniProt P24008); conditions: for stimulation or inhibition of [^3 H]4-MA binding: 40 μM
T1 sequence (P24008 1-259): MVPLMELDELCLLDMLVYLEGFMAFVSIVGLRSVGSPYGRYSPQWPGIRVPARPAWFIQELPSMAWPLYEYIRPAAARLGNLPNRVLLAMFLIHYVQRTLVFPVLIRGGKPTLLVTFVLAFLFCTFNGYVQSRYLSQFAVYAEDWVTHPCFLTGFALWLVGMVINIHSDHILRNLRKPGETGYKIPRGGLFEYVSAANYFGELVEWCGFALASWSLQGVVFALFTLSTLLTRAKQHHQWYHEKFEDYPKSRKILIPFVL

hamster flank organ = assay: Flank organ, castrated immature male hamsters, topical treatment; type: in vivo, Syrian golden hamster; conditions: for Pigmented macule Right (+T): T alone 49.6 ± 8.3; for Pigmented macule Left: Table 5, fatty acid 1 mg without T; for inhibition of T-induced growth of pigmented macule: hamster, in vivo
Method: One to two weeks after castration, the hair on the lower back of each animal was clipped with an electric hair clipper and then shaved weekly to expose the flank organs. The animals were divided into 5 animals/treatment group. A treatment solution (5 μl) was applied topically to the right flank organ once a day using a Pipetteman and a polypropylene disposable tip. Unless specified the left flank organ was not treated. The treatment solution contained either (a) ethanol alone (vehicle and control), (b) an androgen (T or 5α-DHT), (c) a fatty acid, or (d) a combination of an androgen and a fatty acid. The flank organ was wiped with an alcohol pad to remove residual compound before each treatment. […] The flank organs, both the treated and untreated sides, were evaluated with methods to be described below to determine the effect of these treatments of the growth of the pigmented macules and the sebaceous glands. The body weight of each animal was recorded before and after treatment.
The data are presented as mean ± standard deviation. […]

[2] = target: T1, 5α-Reductase of Rat Liver Microsomes; assay: biochemical; conditions: for activation at 200 µM: 1 h, read-out: stimulation of [^3 H]4-MA binding
microsomal 5α-reductase = target: T2, microsomal 5α-reductase (Rattus norvegicus, UniProt P24008); assay: Enzymatic assay of microsomal 5α-reductase (testosterone to 5α-DHT); type: biochemical; conditions: prostate or liver microsomes
T2 construct: from the livers of adult Sprague-Dawley female rats; from tissue; host or cells: liver microsomes of adult female Sprague-Dawley rats
T2 sequence (P24008 1-259): T1 sequence (P24008 1-259)
Method: Microsomes were prepared at 4° C. from a buffered 0.32M-sucrose homogenate of human liver and from the livers of adult Sprague-Dawley female rats by differential centrifugation as described previously (Liang et al., 1990), and were used in the assay of 5α-reductase activity. In some experiments, microsomes were solubilized with 0.1% polyoxyethylene ether W-1 as described previously (Liang et al., 1990), except for the substitution of polyoxyethylene ether W-1 for Lubrol-WX.

5α-reductase = assay: Catechin gallates in rat liver microsomes or cells expressing type 1 or type 2 5α-reductase; type: biochemical; conditions: for inhibitory activity: vs catechin gallate
[3] = target: T1, 5α-Reductase of Rat Liver Microsomes; assay: [3H]4-MA binding assay, rat liver microsomes (tea catechins); conditions: concentrations up to 200 μM
Method: Microsomes were prepared as described previously (Liang and Liao, 1992) from the liver of adult Sprague-Dawley female rats or Rat-1A cells expressing a specific type of human 5α-reductase. Each study was carried out in duplicate or triplicate which were usually within 10% of each other. Several studies were preformed to assure that the results shown are representative. The data presented was based on the rate of reaction.
[^3 H]4-MA binding assay were described in detail previously (Liang and Liao, 1992; Liang et al., 1983). […] The reaction was started by the addition of 25 μl of microsomes (25 μg protein). After 30-60 min incubation at 0° C., the [^3 H]4-MA bound to microsomes was collected on a Whatman GF/F glass fiber, washed and radioactivity determined (Liang and Liao, 1992).

[4] = Table 5, T 0.5 μg + fatty acid 1 mg, 21 days
[5] = read-out: % Inhibition of [^3 H]4-MA binding, Table 1, 40 μM
[6] = read-out: % Inhibition of [^3 H]4-MA binding, Table 1, 200 μM
[7] = read-out: % Inhibition of [^3 H]4-MA binding, Table 2, 10 μM
[8] = read-out: % Inhibition of [^3 H]4-MA binding, Table 2, 40 μM
[9] = read-out: % Inhibition of [^3 H]4-MA binding, Table 2, 200 μM
[10] = Table 5, T 0.5 μg + fatty acid 1 mg
[11] = read-out: % Inhibition of [^3 H]4-MA binding, Table 1, 10 μM
[12] = read-out: % Inhibition of [^3 H]4-MA binding
[13] = read-out: % Inhibition of [^3 H]4-MA binding, Table 2, 5 μM

Compound: CCCCCCCC/C=C\CCCCCCCCCCCC(=O)O [Erucic acid]
- inhibitory activity in [^3 H]4-MA binding assay [1]: inactive
- Percent Inhibition (hamster flank organ; [4]): 29%
- Pigmented macule Right (+T) (hamster flank organ; [4]): 35.4 ± 4.6 mm^2
- Pigmented macule Left (hamster flank organ; 21 days): 4.6 ± 1.5 mm^2
- inhibition of T-induced growth of pigmented macule (hamster flank organ): Weak inhibitions
- IC50 [2]: > 200 µM
- inhibition at 40 µM [2, 5]: < 10%
- inhibition at 200 µM [2, 6]: < 10%
- inhibition at 10 µM [2, 7]: < 10%
- inhibition at 40 µM [2, 8]: < 10%
- inhibition at 200 µM [2, 9]: < 10%

Compound: CCCCCCCC/C=C/CCCCCCCC(=O)O [Elaidic acid]
- inhibition in the enzymatic assay (microsomal 5α-reductase): as potent as their cis isomers
- inhibitory activity in [^3 H]4-MA binding assay [1]: much less inhibitory than their cis isomers
- p (significance of inhibition) (hamster flank organ; [10]): N.S.
- Pigmented macule Right (+T) (hamster flank organ; [4]): 47.0 ± 5.9 mm^2
- Pigmented macule Left (hamster flank organ; 21 days): 4.9 ± 1.1 mm^2
- inhibition of T-induced growth of pigmented macule (hamster flank organ): inactive
- inhibition at 10 µM [2, 11]: < 10%
- inhibition at 40 µM [2, 5]: < 10%
- inhibition at 200 µM [2, 6]: < 10%
- inhibition at 10 µM [2, 7]: < 10%
- inhibition at 40 µM [2, 8]: < 10%
- inhibition at 200 µM [2, 9]: < 10%

Compound: CCCCC/C=C/C/C=C/CCCCCCCC(=O)O [Linolelaidic acid]
- inhibition in the enzymatic assay (microsomal 5α-reductase): as potent as their cis isomers
- inhibitory activity in [^3 H]4-MA binding assay [1]: much less inhibitory than their cis isomers
- p (significance of inhibition) (hamster flank organ; [10]): N.S.
- Pigmented macule Right (+T) (hamster flank organ; [4]): 46.6 ± 8.7 mm^2
- Pigmented macule Left (hamster flank organ; 21 days): 4.1 ± 0.7 mm^2
- inhibition of T-induced growth of pigmented macule (hamster flank organ): inactive
- inhibition at 40 µM [2, 5]: < 10%
- inhibition at 200 µM [2, 6]: 19 ± 5%
- inhibition at 10 µM [2, 7]: < 10%
- inhibition at 40 µM [2, 8]: < 10%
- inhibition at 200 µM [2, 9]: 19%

Compound: NC(=O)c1cc(O)c(O)c(O)c1 [3,4,5-trihydroxybenzamide]
- inhibitory activity (5α-reductase): not as active as catechin gallate

Compound: C=CCCCCCCCCC(=O)O [Undecylenic acid]
- inhibitory activity in [^3 H]4-MA binding assay [1]: inactive
- % Inhibition of [^3 H]4-MA binding ([1]; Table 2, 40 μM): NA (less than 10% inhibition were considered not active (NA))
- p (significance of inhibition) (hamster flank organ; [10]): N.S.
- Pigmented macule Right (+T) (hamster flank organ; [4]): 41.7 ± 10.7 mm^2
- Pigmented macule Left (hamster flank organ; 21 days): 4.7 ± 1.2 mm^2
- inhibition of T-induced growth of pigmented macule (hamster flank organ): no significant inhibition
- inhibition at 10 µM [2, 12]: < 10%
- inhibition at 40 µM [2, 12]: < 10%
- inhibition at 200 µM [2, 12]: 13 ± 2%

Compound: CC1=C(/C=C/C(C)=C/C=C/C(C)=C/C=O)C(C)(C)CCC1 [retinal]
- stimulation or inhibition of [^3 H]4-MA binding [1]: no stimulation or inhibition
- activation at 200 µM [2]: 58%

Compound: heneicosene nitrile
- IC50 [1]: > 200 µM

Compound: carotenes
- inhibitory activity in [^3 H]4-MA binding assay [1]: inactive

Compound: CC1=C(/C=C/C(C)=C/C=C/C(C)=C/CO)C(C)(C)CCC1 [retinol]
- inhibitory activity in [^3 H]4-MA binding assay [1]: slightly stimulatory

Compound: CCCCC[C@H](O)/C=C/[C@H]1[C@H](O)CC(=O)[C@@H]1C/C=C\CCCC(=O)O [Prostaglandin E2]
- inhibitory activity in [^3 H]4-MA binding assay [1]: not active

Compound: methyl docosatetraenoate
- IC50 [1]: > 200 µM

Compound: CCCCC[C@H](O)/C=C/C1=C(CCCCCCC(=O)O)C(=O)CC1 [prostaglandin B1]
- inhibitory activity in [^3 H]4-MA binding assay ([1]; 0.2 mM): somewhat active

Compound: di-γ-linolenin
- IC50 [1]: > 200 µM
- % Inhibition of [^3 H]4-MA binding ([1]; Table 2, 10 μM): NA (less than 10% inhibition were considered not active (NA))
- % Inhibition of [^3 H]4-MA binding ([1]; Table 2, 40 μM): NA (less than 10% inhibition were considered not active (NA))
- % Inhibition of [^3 H]4-MA binding ([1]; Table 2, 200 μM): NA (less than 10% inhibition were considered not active (NA))

Compound: CCCOC(=O)c1cc(O)c(O)c(O)c1 [n-propyl gallate]
- inhibitory activity (5α-reductase): not as active as catechin gallate

Compound: CCCCC/C=C\C/C=C\C/C=C\CCCCC(=O)OCC(O)CO (stereo not shown) [Monoγ-Linolenin]
- IC50 [1]: 86 µM
- inhibition at 5 µM [2, 13]: < 10%
- inhibition at 10 µM [2, 7]: < 10%
- inhibition at 40 µM [2, 8]: 35%
- inhibition at 200 µM [2, 9]: 87%

Compound: CC1=C(/C=C/C(C)=C/C=C/C(C)=C\CO)C(C)(C)CCC1 [13-cis-retinol]
- inhibitory activity in [^3 H]4-MA binding assay [1]: slightly stimulatory
- stimulation or inhibition of [^3 H]4-MA binding [1]: no stimulation or inhibition
- activation at 200 µM [2]: 58%

Compound: CCCCCCCC/C=C\CCCCCCCC(=O)OCC(O)COC(=O)CCCCCCC/C=C\CCCCCCCC [3-diolein]
- inhibitory activity in [^3 H]4-MA binding assay [1]: slightly stimulatory

Compound: phosphatidyl ethanolamine
- inhibitory activity in [^3 H]4-MA binding assay [1]: slightly stimulatory

Compound: CCCCC[C@H](O)/C=C/[C@@H]1[C@@H](CCCCCCC(=O)O)[C@@H](O)C[C@H]1O [prostaglandin F1a]
- inhibitory activity in [^3 H]4-MA binding assay ([1]; 0.2 mM): somewhat active

Compound: CCCCCCCC/C=C\CCCCCCCCCCCCCC(=O)O [Nervonic acid]
- inhibitory activity in [^3 H]4-MA binding assay [1]: inactive
- p (significance of inhibition) (hamster flank organ; [10]): N.S.
- Pigmented macule Right (+T) (hamster flank organ; [4]): 39.9 ± 5.4 mm^2
- Pigmented macule Left (hamster flank organ; 21 days): 4.0 ± 1.5 mm^2
- inhibition of T-induced growth of pigmented macule (hamster flank organ): no significant inhibition
- IC50 [2]: > 200 µM
- inhibition at 40 µM [2, 5]: < 10%
- inhibition at 200 µM [2, 6]: < 10%
- inhibition at 40 µM [2, 8]: < 10%
- inhibition at 200 µM [2, 9]: < 10%

Compound: Oc1cc(O)c2c(c1)OC(c1ccc(O)c(O)c1)C(O)C2 (stereo not shown) [Catechin]
- inhibition (5α-reductase; 40 μM): less than 25%

Compound: CCCCCCCCOC(=O)c1cc(O)c(O)c(O)c1 [n-octyl gallate]
- inhibitory activity (5α-reductase): low inhibitory activity

Compound: CC1=C(/C=C/C(C)=C/C=C/C(C)=C\C(=O)O)C(C)(C)CCC1 [13-cis-retinoic acid]
- inhibitory activity in [^3 H]4-MA binding assay [1]: slightly stimulatory
- stimulation or inhibition of [^3 H]4-MA binding [1]: no stimulation or inhibition
- activation at 200 µM [2]: 58%

Compound: CCCCC[C@H](O)/C=C/C1=C(C/C=C\CCCC(=O)O)C(=O)CC1 [prostaglandin B2]
- inhibitory activity in [^3 H]4-MA binding assay ([1]; 0.2 mM): somewhat active

Compound: CCCCC[C@H](O)/C=C/[C@@H]1[C@@H](C/C=C\CCCC(=O)O)[C@@H](O)C[C@H]1O [Prostaglandin F2a]
- inhibitory activity in [^3 H]4-MA binding assay [1]: not active

Compound: COC(=O)c1cc(O)c(O)c(O)c1 [methyl gallate]
- inhibitory activity (5α-reductase): not as active as catechin gallate

Compound: Phosphatidylcholine
- inhibitory activity in [^3 H]4-MA binding assay [1]: slightly stimulatory

Compound: CC/C=C\C/C=C\C/C=C\CCCCCCCC(=O)OC [linolenic acid methyl ester]
- % Inhibition of [^3 H]4-MA binding ([1]; Table 1, 200 μM, 200 µM): 32%

Compound: CC/C=C\C/C=C\C/C=C\C/C=C\C/C=C\C/C=C\CCC(=O)O [Docosahexaenoic acid, cis-4,7,10,13,16,19-docosahexaenoic acid]
- inhibitory activity in [^3 H]4-MA binding assay [1]: potent inhibitor
- IC50 [2]: 47 µM
- inhibition at 10 µM [2, 11]: < 10%
- inhibition at 40 µM [2, 5]: 27 ± 1%
- inhibition at 200 µM [2, 6]: 87 ± 6%
- inhibition at 5 µM [2, 13]: < 10%
- inhibition at 10 µM [2, 7]: 18%
- inhibition at 40 µM [2, 8]: 49%
- inhibition at 200 µM [2, 9]: 86%

Compound: O=C(O)c1cc(O)c(O)c(O)c1 [gallic acid, reference compound]
- inhibitory activity (5α-reductase): not as active as catechin gallate
- inhibitory activity [3]: not active

Compound: CCCC/C=C\CCCCCCCC(=O)O [Myristoleic acid]
- % Inhibition of [^3 H]4-MA binding ([1]; Table 2, 10 μM): NA (less than 10% inhibition were considered not active (NA))
- inhibition at 5 µM [2, 12]: < 10%
- inhibition at 10 µM [2, 12]: < 10%
- inhibition at 40 µM [2, 12]: 25 ± 4%
- inhibition at 200 µM [2, 12]: 43 ± 1%

Compound: Oc1cccc(O)c1O [pyrogallol]
- inhibitory activity (5α-reductase): not as active as catechin gallate

Compound: CCCCC[C@H](O)/C=C/[C@H]1[C@H](O)CC(=O)[C@@H]1CCCCCCC(=O)O [prostaglandin E1]
- inhibitory activity in [^3 H]4-MA binding assay ([1]; 0.2 mM): somewhat active
